Experimental data published in US9956301B2, “Complex of garcinol, cyclodextrin and method thereof” (Indus Biotech Private Limited, priority 2010, dated 2018).
Read-outs that look alike come from different tables or passages of the source.

Legend:
[1] = test system: Doxorubicin induced cardiac dysfunction; assay type: in vivo; conditions: rats, Doxorubicin Control = Doxorubicin alone, Mean ± SEM; for Glutathione / Lipid Peroxidation: heart tissue, Test Molecule 20 mg/kg p.o. + Doxorubicin 10 mg/kg i.v., n = 4; for Diastolic Blood Pressure / Mean Arterial Blood Pressure / Systolic Blood Pressure: Test Molecule 20 mg/kg p.o. 18 days + Doxorubicin 10 mg/kg i.v. day 16; for Diastolic Blood Pressure / Mean Arterial Blood Pressure / Systolic Blood Pressure / Difference in Heart Rate / Difference in QT interval / Difference in ST interval: n = 6; for Difference in Heart Rate / Difference in QT interval / Difference in ST interval: pretreatment p.o. 18 days (Test Molecule 20 mg/kg) + Doxorubicin 10 mg/kg i.v. day 16
Protocol: Male Wistar rats were pretreated with 20 mg/kg (p.o.) of test molecule for 18 days. On day 16, Doxorubicin at a dose of 10 mg/kg (i.v.) was administered intravenously. On day 18, animals were sacrificed. […] It also induces significant prolongation of QT and ST intervals. Significant reduction of mean arterial blood pressure, systolic and diastolic blood pressures were observed. Elevated oxidative stress on the heart was also seen from increased lipid peroxidation and decreased glutathione (GSH) concentrations.

[2] = test system: cardiac dysfunction induced by chronic Doxorubicin administration; assay: Effect of test molecule in chronic administration of Doxorubicin; assay type: in vivo, Male Wistar rats; conditions: for Cytoplasmic Eosinophilia / Cytoplasmic vacuoles / Inflammation / Myocardial necrosis / Vascular congestion: heart histopathology, day 30, chronic Doxorubicin, Test Molecule 20 mg/kg; for Cytoplasmic Eosinophilia / Cytoplasmic vacuoles / Inflammation / Myocardial necrosis / Vascular congestion / Glutathione / Lipid Peroxidation: n = 4; for Glutathione / Lipid Peroxidation: heart tissue, Test Molecule 20 mg/kg p.o. 30 days + chronic Doxorubicin; for Glutathione / Lipid Peroxidation / Diastolic Blood Pressure / Mean Arterial Blood Pressure / Systolic Blood Pressure / Difference in Heart Rate / Difference in QT interval / Difference in QTc interval / Difference in ST interval: rats, Doxorubicin Control = Doxorubicin alone, Mean ± SEM; for Diastolic Blood Pressure / Mean Arterial Blood Pressure / Systolic Blood Pressure: Test Molecule 20 mg/kg p.o. 30 days + chronic Doxorubicin 3 mg/kg x 5; for Diastolic Blood Pressure / Mean Arterial Blood Pressure / Systolic Blood Pressure / Difference in Heart Rate / Difference in QT interval / Difference in QTc interval / Difference in ST interval: n = 6; for Difference in Heart Rate / Difference in QT interval / Difference in QTc interval / Difference in ST interval: pretreatment p.o. 30 days (Test Molecule 20 mg/kg) + Doxorubicin 3 mg/kg on days 1, 7, 14, 21, 28
Protocol: Male Wistar rats were pretreated with 20 mg/kg (p.o.) of test molecule for 30 days. On days 1, 7, 14, 21 and 28, Doxorubicin at a dose of 3 mg/kg […] was administered intravenously. On Day 30, animals were sacrificed for histopathological examination of the heart.

[3] = test system: Doxorubicin induced cardiac dysfunction; assay: Activity of Garcinol against Doxorubicin induced cardiac dysfunction; assay type: in vivo; conditions: rats; for Glutathione / Lipid Peroxidation: heart tissue, Garcinol 100 mg/kg p.o. + Doxorubicin 10 mg/kg i.v., n = 4
Protocol: Male Wistar rats were pretreated with Garcinol at 10, 25, 50, 100 and 200 mg/kg (p.o.) for 18 days. On day 16, Doxorubicin at a dose of 10 mg/kg (i.v.) was administered intravenously. On day 18, animals were sacrificed. […] Elevated oxidative stress on the heart was also seen from increased lipid peroxidation and decreased glutathione (GSH) concentrations.

[4] = Water solubility of Garcinol and test molecule; assay type: physicochemical; conditions: room temperature
From the text: Garcinol is insoluble in water at room temperature.

[5] = test system: Isoproterenol induced cardiac dysfunction; assay: Cardioprotective activity of test molecule in Isoproterenol induced cardiac dysfunction; assay type: in vivo, Male Wistar rats; conditions: rats, Isoproterenol Control = Isoproterenol alone, Mean ± S.E.M.
Protocol: Male Wistar rats were pretreated with 20 mg/kg (p.o.) of test molecule 18 days. From Day 9, Isoproterenol at a dose of 1 mg/kg/day was administered intravenously for 10 days. Isoproterenol administration induced significant changes to the QT and ST interval. Isoproterenol induced oxidative stress was observed by decreased Glutathione (GSH) and increased lipid peroxidation concentrations in the heart.

[6] = test system: Digitalis induced cardiac dysfunction; assay: Cardioprotective activity of test molecule in Digitalis induced cardiac dysfunction; assay type: in vivo, Male Wistar rats
Protocol: Male Wistar rats were pretreated with 20 mg/kg (p.o.) of test molecule for 18 days. On Day 18, Digitalis at a three doses of 500 […] was administered intravenously with interval period of 15 min. After this, 200 […] was administered every 15 min continued upto cardiac arrest. Histopathological examination of the heart was conducted.

[7] = Doxorubicin Control = Doxorubicin alone, Mean ± SEM
[8] = Garcinol 100 mg/kg p.o. 18 days + Doxorubicin 10 mg/kg i.v. day 16, Doxorubicin Control = Doxorubicin alone, Mean ± SEM, n = 6
[9] = heart tissue, Test Molecule 20 mg/kg + Isoproterenol, n = 4
[10] = test molecule 20 mg/kg p.o. 18 days + Isoproterenol 1 mg/kg/day i.v. 10 days from Day 9, n = 5
[11] = heart histopathology, Digitalis induced cardiac dysfunction, n = 4
[12] = rats, test molecule 20 mg/kg p.o. 18 days + Digitalis i.v., Digitalis Control = Digitalis alone, Mean ± S.E.M, n = 4
[13] = rats, test molecule 20 mg/kg p.o. 18 days, then Digitalis i.v. every 15 min up to cardiac arrest, Digitalis Control = Digitalis alone, Mean ± S.E.M., n = 6

Compound: COc1cccc2c1C(=O)c1c(O)c3c(c(O)c1C2=O)C[C@@](O)(C(=O)CO)C[C@@H]3O[C@H]1C[C@H](N)[C@H](O)[C@H](C)O1 [Doxorubicin]
- Glutathione [1]: 17.29 ± 0.4496 μg/mg of protein
- Lipid Peroxidation [1]: 4.160 ± 0.3427 nmol of MDA/mg of Protein
- Diastolic Blood Pressure [1]: 75.96 ± 3.611 mm Hg
- Mean Arterial Blood Pressure [1]: 89.26 ± 1.837 mm Hg
- Systolic Blood Pressure [1]: 89.44 ± 5.108 mm Hg
- Difference in Heart Rate [1]: −33.67 ± 15.96 bpm
- Difference in QT interval [1]: 0.0229 ± 0.00206 s
- Difference in ST interval [1]: 0.015 ± 0.001497 s
- Cytoplasmic Eosinophilia [2]: +++ ((+++) 60-90% of cells show changes)
- Cytoplasmic vacuoles [2]: ++ ((++) 30-60% of cells show changes)
- Inflammation [2]: +++ ((+++) 60-90% of cells show changes)
- Myocardial necrosis [2]: +++ ((+++) 60-90% of cells show changes)
- Vascular congestion [2]: ++ ((++) 30-60% of cells show changes)
- Glutathione [2]: 15.05 ± 0.8970 μg/mg of protein
- Lipid Peroxidation [2]: 4.631 ± 0.3671 nmol of MDA/mg of Protein
- Diastolic Blood Pressure [2]: 82.81 ± 1.997 mm Hg
- Mean Arterial Blood Pressure [2]: 86.67 ± 0.9226 mm Hg
- Systolic Blood Pressure [2]: 92.59 ± 1.728 mm Hg
- Difference in Heart Rate [2]: −64.59 ± 12.13 bpm
- Difference in QT interval [2]: 0.015 ± 0.00087 s
- Difference in QTc interval [2]: 0.035 ± 0.0046 s
- Difference in ST interval [2]: 0.016 ± 0.0015 s
- Number of Animals Deaths ([3]; Doxorubicin Control: Doxorubicin 10 mg/kg i.v. day 16 alone): 0/6
- Glutathione [3, 7]: 16.10 ± 1.17 μg/mg of protein
- Lipid Peroxidation [3, 7]: 4.56 ± 0.47 nmol of MDA/mg of Protein
- Difference in Heart Rate [3, 8]: −77.5 ± 19.63 bpm
- Difference in QT interval [3, 8]: 0.014 ± 0.0035 s
- Difference in ST interval [3, 8]: 0.0085 ± 0.0048 s

Compound: C=C(C)[C@@H](CC=C(C)C)C[C@@]12C[C@@H](CC=C(C)C)C(C)(C)[C@@](CC=C(C)C)(C(=O)C(C(=O)c3ccc(O)c(O)c3)=C1O)C2=O [Garcinol]
- Water solubility [4]: insoluble
- Animal mortality / toxicity (in words) ([3]; Garcinol 100 to 200 mg/kg p.o., Doxorubicin 10 mg/kg i.v.): animal mortality was observed
- Glutathione [3, 7]: 22.05 ± 1.031 μg/mg of protein
- Lipid Peroxidation [3, 7]: 1.69 ± 0.04 nmol of MDA/mg of Protein

Compound: CC(C)NCC(O)c1ccc(O)c(O)c1 (stereo not shown) [Isoproterenol]
- Glutathione [5, 9]: 19.02 ± 0.8526 μg/mg of protein
- Lipid Peroxidation [5, 9]: 4.443 ± 0.0392 nmol of MDA/mg of Protein
- Difference in Heart Rate [5, 10]: 43.66 ± 6.267 bpm
- Difference in QT interval [5, 10]: 0.01686 ± 0.002 s
- Difference in ST interval [5, 10]: 0.0180 ± 0.0009 s
- Mean Arterial Blood Pressure [5, 10]: 72.45 ± 5.942 mm Hg

Compound: Cyclodextrin
- Glutathione [1]: 16.76 ± 0.4971 μg/mg of protein
- Lipid Peroxidation [1]: 4.056 ± 0.2880 nmol of MDA/mg of Protein
- Diastolic Blood Pressure [1]: 76.83 ± 1.709 mm Hg
- Mean Arterial Blood Pressure [1]: 89.26 ± 2.357 mm Hg
- Systolic Blood Pressure [1]: 89.88 ± 4.507 mm Hg
- Difference in Heart Rate [1]: −34.87 ± 6.935 bpm
- Difference in QT interval [1]: 0.0225 ± 0.00091 s
- Difference in ST interval [1]: 0.014 ± 0.001025 s
- Cytoplasmic Eosinophilia [2]: ++ ((++) 30-60% of cells show changes)
- Cytoplasmic vacuoles [2]: ++ ((++) 30-60% of cells show changes)
- Inflammation [2]: +++ ((+++) 60-90% of cells show changes)
- Myocardial necrosis [2]: +++ ((+++) 60-90% of cells show changes)
- Vascular congestion [2]: ++ ((++) 30-60% of cells show changes)
- Glutathione [2]: 15.15 ± 0.6584 μg/mg of protein
- Lipid Peroxidation [2]: 4.700 ± 0.6126 nmol of MDA/mg of Protein
- Diastolic Blood Pressure [2]: 80.00 ± 2.298 mm Hg
- Mean Arterial Blood Pressure [2]: 88.04 ± 1.813 mm Hg
- Systolic Blood Pressure [2]: 92.22 ± 2.275 mm Hg
- Difference in Heart Rate [2]: −66.22 ± 8.303 bpm
- Difference in QT interval [2]: 0.015 ± 0.00437 s
- Difference in QTc interval [2]: 0.033 ± 0.0092 s
- Difference in ST interval [2]: 0.016 ± 0.0022 s

Compound: Digitalis
- Cytoplasmic Eosinophilia [6, 11]: ++ ((++) 30-60% of cells show changes)
- Cytoplasmic vacuoles [6, 11]: ++ ((++) 30-60% of cells show changes)
- Inflammation [6, 11]: +++ ((+++) 60-90% of cells show changes)
- Myocardial necrosis [6, 11]: +++ ((+++) 60-90% of cells show changes)
- Vascular congestion [6, 11]: ++ ((++) 30-60% of cells show changes)
- Glutathione [6, 12]: 21.01 ± 0.5369 μg/mg of protein
- Lipid Peroxidation [6, 12]: 6.909 ± 0.4459 nmol of MDA/mg of Protein
- Dose of Digitalis required for inducing Arterial Fibrillation [6, 13]: 2.933 ± 0.2333 mg/kg
- Dose of Digitalis required for inducing Cardiac Arrest [6, 13]: 3.067 ± 0.2801 mg/kg
- Dose of Digitalis required for inducing Ectopic Beats [6, 13]: 2.7 ± 0.2129 mg/kg
